From patent publication US20260150874A1, “HUMAN MILK OLIGOSACCHARIDES” (SOCIETE DES PRODUITS NESTLE S.A., priority 2021, published 2026)
“Also recorded” adds a separate entry of the source.

Legend:
visual network = assay: Association between human milk HMOs and brain functional network connection strength (rsfMRI), visual network; assay type: in vivo, typically developing infants (human); conditions: A-tetra+ group; infants 0-20 months; human milk HMO level; quantile regression of 25th, 50th, 75th percentiles of CS; across all quantiles
Experimental: (§1) In this study, we leveraged the UNC/UMN Baby Connectome Project (BCP) published in Neuroimage 2019: Vol 185: 891-905, aiming to longitudinally characterize early brain development, where typically developing children from 0-5 years of age were enrolled, longitudinal resting functional MR imaging (rsfMRI) was administered at each visit. The BCP study was further supplemented by collecting breast milk samples from the mothers whose children were breast-fed at the time of study visit, to allow the determination of potential associations between HMOs and early brain functional development using rsfMRI.
(§2) 153 rsfMRI scans from 91 typically developing infants (0-20 months old) were obtained. Human milk (HM) samples were obtained from the mothers of the participants at each imaging visit and analyzed for HMOs. Brain functional network connection strengths (CS), which have been implicated to reflect brain functional maturation during early brain development, were obtained for the visual, default mode (DMN), sensorimotor, and auditory networks. Age effects for CS and HMOs were removed. Multivariate quantile regression of 25th, 50th, and 75th percentiles of CS with mixed effect was used to examine associations between HMOs and CS for all infants, and stratified by infants who received HM with detectable and undetectable A-tetra (A-tetra+and A-tetra−). […]

auditory network = assay: Association between human milk HMOs and brain functional network connection strength (rsfMRI), auditory network; assay type: in vivo, typically developing infants (human); conditions: A-tetra+ group; infants 0-20 months; human milk HMO level; quantile regression of 25th, 50th, 75th percentiles of CS; across all quantiles
Experimental: as §1, §2

Compound: CC(=O)N[C@H]1[C@H]([C@H](O)[C@H](O)CO)O[C@@](OC[C@H]2O[C@@H](O[C@H]3[C@H](O)[C@@H](O)[C@H](O)O[C@@H]3CO)[C@H](O)[C@@H](O)[C@H]2O)(C(=O)O)C[C@@H]1O [6′-SL, 6′-sialyllactose]
- association between 6′-SL and visual function (vision resting functional networks, connection strength) (visual network): positive associations; also recorded: significant positive association
- association between 6′-SL and auditory function (auditory resting functional networks, connection strength) (auditory network): positive associations; also recorded: significant positive association
